Test results published in article PMC3979805, “Identification of Resveratrol Oligomers as Inhibitors of Cystic Fibrosis Transmembrane Conductance Regulator by High-Throughput Screening of Natural Products from Chinese Medicinal Plants” (PLoS ONE, 2014).
pIC50: −log10 of the molar value.

Key:
[1] = molecular target: T1, cystic fibrosis transmembrane conductance regulator (CFTR) (Homo sapiens, UniProt P13569); assay: EYFP-H148Q iodide influx assay in FRT cells; excised inside-out patch-clamp ([…], reversible); format: cell-based
T1 construct: wild-type human CFTR stably expressed in FRT cells

[2] = molecular target: T1, cystic fibrosis transmembrane conductance regulator (CFTR); assay: EYFP-H148Q iodide influx assay in FRT cells; excised inside-out patch-clamp ([…], nearly irreversible); format: cell-based

T1 sequence (P13569 whole entry): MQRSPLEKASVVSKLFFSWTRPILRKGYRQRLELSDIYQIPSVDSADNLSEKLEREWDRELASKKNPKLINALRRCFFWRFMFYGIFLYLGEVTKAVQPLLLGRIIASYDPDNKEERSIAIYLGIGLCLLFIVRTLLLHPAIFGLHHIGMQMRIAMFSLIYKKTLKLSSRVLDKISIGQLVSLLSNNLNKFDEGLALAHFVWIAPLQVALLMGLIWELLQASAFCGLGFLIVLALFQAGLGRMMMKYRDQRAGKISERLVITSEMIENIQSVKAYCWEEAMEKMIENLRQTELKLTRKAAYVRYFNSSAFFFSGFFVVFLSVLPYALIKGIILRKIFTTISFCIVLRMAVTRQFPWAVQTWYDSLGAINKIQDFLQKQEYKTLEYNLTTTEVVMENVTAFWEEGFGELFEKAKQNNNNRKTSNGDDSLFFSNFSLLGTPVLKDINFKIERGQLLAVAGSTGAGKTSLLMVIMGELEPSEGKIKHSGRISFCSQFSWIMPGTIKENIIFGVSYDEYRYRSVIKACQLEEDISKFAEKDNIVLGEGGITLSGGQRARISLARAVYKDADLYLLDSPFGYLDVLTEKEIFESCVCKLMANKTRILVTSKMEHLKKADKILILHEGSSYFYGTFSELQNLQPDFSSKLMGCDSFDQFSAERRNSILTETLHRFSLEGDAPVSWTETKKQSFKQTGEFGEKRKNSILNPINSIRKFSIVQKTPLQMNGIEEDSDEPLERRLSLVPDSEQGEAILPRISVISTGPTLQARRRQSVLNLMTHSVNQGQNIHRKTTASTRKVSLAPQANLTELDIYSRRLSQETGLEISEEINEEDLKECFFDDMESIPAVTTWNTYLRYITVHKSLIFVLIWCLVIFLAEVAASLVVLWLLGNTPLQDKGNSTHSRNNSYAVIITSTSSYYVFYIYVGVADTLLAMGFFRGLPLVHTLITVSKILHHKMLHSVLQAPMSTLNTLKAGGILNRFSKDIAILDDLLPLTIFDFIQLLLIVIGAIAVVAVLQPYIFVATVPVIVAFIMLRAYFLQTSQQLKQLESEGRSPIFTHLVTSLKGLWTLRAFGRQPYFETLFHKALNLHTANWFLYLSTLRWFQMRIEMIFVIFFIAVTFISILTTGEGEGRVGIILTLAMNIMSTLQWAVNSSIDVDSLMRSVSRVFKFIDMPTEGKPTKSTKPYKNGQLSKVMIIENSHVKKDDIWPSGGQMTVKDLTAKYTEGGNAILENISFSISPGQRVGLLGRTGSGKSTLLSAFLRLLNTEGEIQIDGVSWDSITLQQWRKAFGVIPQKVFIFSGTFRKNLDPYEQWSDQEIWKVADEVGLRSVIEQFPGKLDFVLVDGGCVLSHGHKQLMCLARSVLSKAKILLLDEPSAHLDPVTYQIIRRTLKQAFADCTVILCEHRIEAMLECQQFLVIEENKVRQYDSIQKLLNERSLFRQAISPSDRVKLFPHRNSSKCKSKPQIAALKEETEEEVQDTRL

| pIC50 [1] | pIC50 [2] | Compound |
| --- | --- | --- |
| ~4.70 |  | Oc1ccc(/C=C/c2cc(O)cc3c2[C@H](c2cc(O)cc(O)c2)[C@@H](c2ccc(O)cc2)O3)cc1 [TV, trans-ε-viniferin] |
|  | ~4.70 | Oc1ccc([C@H]2c3c(O)cc(O)cc3[C@H]3c4c(cc(O)cc4[C@H]2c2cc(/C=C/c4cc(O)cc5c4[C@H](c4cc(O)cc(O)c4)[C@@H](c4ccc(O)cc4)O5)ccc2O)O[C@@H]3c2ccc(O)cc2)cc1 [RV, r-2-viniferin] |
